Source: patent publication US20110028445A1, “Urea derivatives of benzomorphanes and related scaffolds, medicaments containing such compounds and their use” (BOEHRINGER INGELHEIM INTERNATIONAL GMBH, priority 2008, published 2011)

molecular target: T1, 11β-HSD1 (Homo sapiens, UniProt P28845); experiment: In vitro inhibition of 11β-HSD1, HTRF detection of cortisol generated by human liver microsomes; format: biochemical; details: compound concentration 1 μM, 100% indicates no inhibition, zero or below zero indicates complete inhibition, cortisone 80 nM, 1 hour at 37° C., read-out: % CTL at 1 μM
T1 construct: detecting cortisol generated from cortisterone by human liver microsomes; from tissue; host or cells: human liver microsomes
Method: Briefly, compounds were incubated for 1 hour at 37° C. in Tris buffer (20 mM tris, 5 mM EDTA, pH 6.0) containing NADPH (200 μM) and cortisone (80 nM). Cortisol generated in the reaction is then detected with a competitive immunoassay, involving two HTRF conjugates: cortisol linked to XL665 and anti-cortisol antibody labeled with Europium cryptate. The incubation period for detection reaction was typically 2 hours. The amount of cortisol is determined by reading the time-resolved fluorescence of the wells (Ex 320/75 nm; Em 615/8.5 nm and 665/7.5 nm). The ratio of the two emission signals is then calculated (Em665*10000/Em615). […] Each assay also contained a calibration curve with cortisol to transform the fluorescent data into cortisol concentrations. Percent inhibition of each compound was determined relative to the carbenoxolone signal and IC50 curves were generated.
The % CTL values of some example compounds at a concentration of 1 μM are provided in the following Table 2 wherein 100% indicates no inhibition and a value of zero or below zero indicates complete inhibition. The measurement of % CTL is described hereinbefore.

T1 sequence (P28845 whole entry): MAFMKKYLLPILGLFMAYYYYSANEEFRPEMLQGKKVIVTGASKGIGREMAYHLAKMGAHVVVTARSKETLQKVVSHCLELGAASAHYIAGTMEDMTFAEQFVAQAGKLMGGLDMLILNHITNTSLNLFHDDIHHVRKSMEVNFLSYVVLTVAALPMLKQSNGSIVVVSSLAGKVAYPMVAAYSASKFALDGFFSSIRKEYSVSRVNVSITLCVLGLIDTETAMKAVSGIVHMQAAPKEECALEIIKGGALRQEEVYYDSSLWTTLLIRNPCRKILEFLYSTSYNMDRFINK

Row | Compound | remaining activity at 1 µM
1 | CC1(C)[C@H]2Cc3c(O)cccc3[C@]1(C)CCN2C(=O)N1CCCCC1 [Example 1, [(2R,6S)-10-Hydroxy-6,11,11-trimethyl-1,2,5,6-tetrahydro-4H-2,6-methano-benzo[d]azocin-3-yl]-piperidin-1-yl-methanone] | -46%
2 | CC1(C)[C@H]2Cc3c(O)cccc3[C@]1(C)CCN2C(=O)N1CCCC1 [Example 2] | 18%
3 | CC1(C)[C@H]2Cc3c(O)cccc3[C@]1(C)CCN2C(=O)N1CCOCC1 [Example 3] | 84%
4 | CC1(C)[C@H]2Cc3c(O)cccc3[C@]1(C)CCN2C(=O)N1CCc2ccsc2C1 [Example 7, (4,7-Dihydro-5H-thieno[2,3-c]pyridin-6-yl)-[(2R,6S)-10-hydroxy-6,11,11-trimethyl-1,2,5,6-tetrahydro-4H-2,6-methano-benzo[d]azocin-3-yl]-methanone] | -32%
5 | CC1(C)[C@H]2Cc3c(O)cccc3[C@]1(C)CCN2C(=O)N1CCc2sccc2C1 [Example 8] | -27%
6 | CC1CCN(C(=O)N2CC[C@@]3(C)c4cccc(O)c4C[C@@H]2C3(C)C)CC1 [Example 9] | -14%
7 | CC1(C)[C@H]2Cc3c(O)cccc3[C@]1(C)CCN2C(=O)N1Cc2ccccc2C1 [Example 10] | 53%
8 | CC1(C)[C@H]2Cc3c(O)cccc3[C@]1(C)CCN2C(=O)N1CCc2ccccc2C1 [Example 11] | 18%
9 | COC1CCN(C(=O)N2CC[C@@]3(C)c4cccc(O)c4C[C@@H]2C3(C)C)CC1 [Example 12] | -39%
10 | CC1(C)[C@H]2Cc3c(O)cccc3[C@]1(C)CCN2C(=O)N1CCC(O)CC1 [Example 13] | -53%
11 | CC1(C)[C@H]2Cc3c(O)cccc3[C@]1(C)CCN2C(=O)N1C2CCC1CC(O)C2 (stereo partly drawn) [Example 14] | -46%
12 | CC1(C)[C@H]2Cc3c(O)cccc3[C@]1(C)CCN2C(=O)N1CCc2nc[nH]c2C1 [Example 15] | 14%
13 | CC1(C)[C@H]2Cc3c(O)cccc3[C@]1(C)CCN2C(=O)N1CCCc2ccccc21 [Example 16] | -41%
14 | CC1(C)[C@H]2Cc3c(O)cccc3[C@]1(C)CCN2C(=O)N1[C@@H]2CC[C@H]1C[C@@H](c1ccc(F)cc1)C2 [Example 17] | -43%
15 | CC1(C)[C@H]2Cc3c(O)cccc3[C@]1(C)CCN2C(=O)N1CCc2ccccc21 [Example 18] | -8%
16 | CC1(C)[C@H]2Cc3ccccc3[C@]1(C)CCN2C(=O)N1CCCCC1 [Example 19] | -47%
17 | C[C@@H]1[C@H]2Cc3ccc(O)cc3[C@]1(C)CCN2C(=O)N1CCCCC1 [Example 20] | -39%
18 | C[C@@H]1[C@H]2Cc3ccc(C#N)cc3[C@]1(C)CCN2C(=O)N1CCCCC1 [Example 21] | -28%
19 | CC1(C)[C@H]2Cc3c(O)cccc3[C@]1(C)CCN2C(=O)N1CCC(CO)C1 (stereo partly drawn) [Example 22] | -4%
20 | CC1(C)[C@H]2Cc3c(O)cccc3[C@]1(C)CCN2C(=O)N1CCCC(O)C1 (stereo partly drawn) [Example 23] | -9%
21 | CC1(C)[C@H]2Cc3c(O)cccc3[C@]1(C)CCN2C(=O)N1CC(O)C1 [Example 24] | 70%
22 | CC1(C)[C@H]2Cc3c(O)cccc3[C@]1(C)CCN2C(=O)N1CCC(CO)CC1 [Example 25] | -43%
23 | CC1(C)[C@H]2Cc3c(O)cccc3[C@]1(C)CCN2C(=O)N1CCCC(O)CC1 (stereo partly drawn) [Example 26] | -41%

Row | Compound | remaining activity at 1 µM
24 | CC1(O)CCN(C(=O)N2CC[C@@]3(C)c4cccc(O)c4C[C@@H]2C3(C)C)CC1 [Example 27] | -41%
25 | CC1(C)[C@H]2Cc3c(O)cccc3[C@]1(C)CCN2C(=O)N1CCCC1CO (stereo partly drawn) [Example 28] | 36%
26 | CC1(C)[C@H]2Cc3c(O)cccc3[C@]1(C)CCN2C(=O)N1CCC(O)C1 (stereo partly drawn) [Example 29] | 30%
27 | CC1(C)[C@H]2Cc3c(O)cccc3[C@]1(C)CCN2C(=O)N1CCCC(CO)C1 (stereo partly drawn) [Example 30] | -54%
28 | COc1cccc2c1C[C@H]1N(C(=O)N3CCCCC3)CC[C@]2(C)C1(C)C [Example 31, [(2R,6S)-10-Methoxy-6,11,11-trimethyl-1,2,5,6-tetrahydro-4H-2,6-methano-benzo[d]azocin-3-yl]-piperidin-1-yl-methanone] | -6%
29 | CC1(C)[C@H]2Cc3c(OCc4ccccc4)cccc3[C@]1(C)CCN2C(=O)N1CCCCC1 [Example 32] | 82%
30 | CC1(C)[C@H]2Cc3c(OCC#N)cccc3[C@]1(C)CCN2C(=O)N1CCCCC1 [Example 33] | 23%
31 | CC1(C)[C@H]2Cc3c(ccc(C#N)c3O)[C@]1(C)CCN2C(=O)N1CCCCC1 [Example 35, (2R,6S)-10-Hydroxy-6,11,11-trimethyl-3-(piperidine-1-carbonyl)-1,2,3,4,5,6-hexahydro-2,6-methano-benzo[d]azocine-9-carbonitrile] | -30%
32 | CC1(C)[C@H]2Cc3cc(C#N)ccc3[C@]1(C)CCN2C(=O)N1CCCCC1 [Example 36, (2R,6S)-6,11,11-Trimethyl-3-(piperidine-1-carbonyl)-1,2,3,4,5,6-hexahydro-2,6-methano-benzo[d]azocine-9-carbonitrile] | -31%
33 | CC1(C)[C@H]2Cc3c(O)cccc3[C@]1(C)CCN2C(=O)N1CCC(O)(CO)CC1 [Example 37] | -7%
34 | CC1(C)[C@H]2Cc3c(O)cccc3[C@]1(C)CCN2C(=O)N1C2CCCC1CC(O)C2 (stereo partly drawn) [Example 40] | -17%
35 | CC1(C)[C@H]2Cc3c(O)cccc3[C@]1(C)CCN2C(=O)N1CCCC(C(N)=O)C1 (stereo partly drawn) [Example 41] | -56%
36 | CC1(C)[C@H]2Cc3c(O)cccc3[C@]1(C)CCN2C(=O)N1CCCC(C(=O)Nc2ccccc2)C1 (stereo partly drawn) [Example 42] | 32%
37 | CC1(C)[C@H]2Cc3c(O)cccc3[C@]1(C)CCN2C(=O)N1CCCC2(CCCNC2=O)C1 (stereo partly drawn) [Example 43] | -45%
38 | CC1(C)[C@H]2Cc3c(O)cccc3[C@]1(C)CCN2C(=O)N1CCc2cc(O)ccc2C1 [Example 44] | -4%
39 | CC1(C)[C@H]2Cc3c(O)cccc3[C@]1(C)CCN2C(=O)N1CCc2cccc(O)c2C1 [Example 46, (8-Hydroxy-3,4-dihydro-1H-isoquinolin-2-yl)-[(2R,6S)-10-hydroxy-6,11,11-trimethyl-1,2,5,6-tetrahydro-4H-2,6-methano-benzo[d]azocin-3-yl]-methanone] | -10%
40 | CC1(C)[C@H]2Cc3c(O)cccc3[C@]1(C)CCN2C(=O)N1CCn2cnnc2C1 [Example 47] | 94%
41 | Cc1ccc2c(c1)CCCN2C(=O)N1CC[C@@]2(C)c3cccc(O)c3C[C@@H]1C2(C)C [Example 48] | -18%
42 | CC1(C)[C@H]2Cc3c(O)cccc3[C@]1(C)CCN2C(=O)N1CCCc2cc(NC(=O)C(F)(F)F)ccc21 [Example 49] | 23%
43 | CC1(C)[C@H]2Cc3c(O)cccc3[C@]1(C)CCN2C(=O)N1CCC(C(N)=O)CC1 [Example 50] | -20%
44 | CC(C)(C)C1COc2ccccc2N1C(=O)N1CC[C@@]2(C)c3cccc(O)c3C[C@@H]1C2(C)C (stereo partly drawn) [Example 51] | 94%
45 | CC1(C)[C@H]2Cc3c(O)cccc3[C@]1(C)CCN2C(=O)N1CCCC(c2nc3ccccc3[nH]2)C1 (stereo partly drawn) [Example 52] | 27%
